Experimental data as given in US12280046B2, “Melanocortin subtype-2 receptor (MC2R) antagonist for the treatment of disease” (Crinetics Pharmaceuticals, Inc., priority 2021, dated 2025).
pIC50: −log10 of the molar value.

Columns and labels:
[1] = target: T1, MC1R (Homo sapiens, UniProt Q01726); test: Commercially available MC1R membrane binding assay; conditions: greater than highest concentration tested
T1 construct: purchased
Protocol: (§1) The selectivity over other human MCR subtypes was evaluated using commercially available MC1R, MC3R, MC4R, and MCSR membrane binding assays. The half maximal inhibitory concentration in the binding assays (IC50) were determined to be greater than the highest concentration tested, or >10,000 nM, >1000 nM, >10,000 nM and >1000 nM for MC1R, MC3R, MC4R and MCSR, respectively. Compound 1 is >2900-fold selective for MC2R versus the other human MCRs.

[2] = target: T2, MC3R (Homo sapiens, UniProt P41968); test: Commercially available MC3R membrane binding assay; conditions: greater than highest concentration tested
T2 construct: purchased
Protocol: as §1

[3] = test system: serotonin 5-hydroxytryptamine 1B receptor (5-HT1B); test: SafetyScreen panel: 5-HT1B; assay type: binding; conditions: 10 μM
Protocol: Compound 1 was tested at Eurofins Panlabs Discovery Services Taiwan, Ltd. for evaluation in their SafetyScreen™ panel of assays. This included selectivity assays at 87 targets including G-protein coupled receptors, nuclear receptors, other cell surface receptors, ion channels, enzymes, and transporters.

[4] = target: 5-HT1B receptor (Homo sapiens, UniProt P28222); test: 5-HT1B functional dose response, agonist and antagonist modes; assay type: biochemical
Source text: The selectivity of Compound 1 for hMC2R over 5-HT1B is >2200-fold.

[5] = Single oral dose ACTH challenge test in rats; assay type: in vivo, rat; conditions: rat, in vivo, male rats, at minimum effective dose 3 mg/kg oral
Protocol: (§2) The pharmacodynamic (PD) effects of Compound 1 were examined in rat by evaluating suppression of the corticosterone (cortisol in humans) response induced by administration of ACTH.
(§3) The ability of a single oral dose of Compound 1 to suppress corticosterone over 2 hours in response to an ACTH challenge test was assessed in male and female rats. Acute, IV administration of 1 μg/kg ACTH(1-24) induced a robust rise in plasma corticosterone levels compared to baseline in male and female rats.

[6] = test system: ACTH-stimulated corticosterone secretion; test: Single oral dose ACTH challenge test in rats; assay type: in vivo, rat; conditions: for suppression of corticosterone: 1 μg/kg IV ACTH(1-24), vs vehicle
Protocol: as §2, §3

[7] = Phase 1 MAD study, pharmacokinetics, 40 mg daily over 10 days; assay type: in vivo, human
Source text: (§4) This Phase 1, first-in-human, double-blind, randomized, placebo-controlled study will evaluate the safety of Compound 1 in healthy volunteers as well as the relationship between exposure and pharmacodynamic (PD) parameters, including ACTH-stimulated and endogenous cortisol secretion measured in blood, saliva, and urine. Results will be used to inform endpoints and other parameters in future later studies in patients with Cushing's disease (CD) or other diseases of excess adrenocorticotropic hormone (ACTH), including Congenital Adrenal Hyperplasia (CAH) and Ectopic ACTH Syndrome (EAS).
(§5) MAD/Part 2: multiple ascending dose, randomized, placebo-controlled, double-blind; 2 planned and up to 4 total cohorts (n=36). In each cohort, 6 subjects will receive Compound 1, 3 subjects will receive the placebo. The doses will not exceed the doses in the SAD.
Pharmacokinetic results for Day 1 and Day 10 from the MAD study using a 40 mg daily dose of Compound 1 over 10 days are shown in FIG. 12. Data shown are mean±SEM. […] The mean half-life was ˜30 hours.

[8] = test system: basal and ACTH-stimulated cortisol; test: Phase 1 MAD study, basal and ACTH-stimulated cortisol; assay type: in vivo, human
Source text: as §4, §5
Starting on Day −1 until EOS (or ET), fasting pre-dose blood samples are collected <15 minutes prior to dosing for measurement of serum cortisol, A4, 17-OHP, aldosterone, ACTH(1 39), renin, and DHEAS. […] Cosyntropin is then administered (250 mcg in the “high dose” test; 1 mcg in the “low dose” test) to define time 0 of the ACTH-stimulation test. […]
At Screening and on Days 2, 3, 5, 6, 7, 8, 10, 11, and 12, fasting blood samples are collected for measurement of serum cortisol at 4 hours (15 minutes) post-dose (˜1200 hr). On Days in which the ACTH-stimulation test is conducted, this collection will be 120 min post-cosyntropin administration such that post-cosyntropin cortisol collection times are Time 30 minutes (5 minutes), Time 60 minutes (5 minutes), and Time 120 minutes (5 minutes).
A 24-hour blood biomarker profile is measured starting Day −1 until Day 1 pre-dose, Day 1 post-dose until Day 2 pre-dose, Day 4 post-dose until Day 5 pre-dose, and Day 9 post-dose until Day 10 pre-dose.

Sequence of 5-HT1B receptor (P28222 whole entry): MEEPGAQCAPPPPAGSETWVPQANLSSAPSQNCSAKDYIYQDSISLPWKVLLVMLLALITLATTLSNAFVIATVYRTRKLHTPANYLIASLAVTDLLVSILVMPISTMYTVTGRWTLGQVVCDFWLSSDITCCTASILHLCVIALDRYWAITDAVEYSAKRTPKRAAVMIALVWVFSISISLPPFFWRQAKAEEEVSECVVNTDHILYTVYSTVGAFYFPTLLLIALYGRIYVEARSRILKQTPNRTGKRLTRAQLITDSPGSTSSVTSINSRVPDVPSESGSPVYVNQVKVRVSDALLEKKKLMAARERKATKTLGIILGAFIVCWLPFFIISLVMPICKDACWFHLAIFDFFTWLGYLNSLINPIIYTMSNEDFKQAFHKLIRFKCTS
T1 sequence (Q01726 whole entry): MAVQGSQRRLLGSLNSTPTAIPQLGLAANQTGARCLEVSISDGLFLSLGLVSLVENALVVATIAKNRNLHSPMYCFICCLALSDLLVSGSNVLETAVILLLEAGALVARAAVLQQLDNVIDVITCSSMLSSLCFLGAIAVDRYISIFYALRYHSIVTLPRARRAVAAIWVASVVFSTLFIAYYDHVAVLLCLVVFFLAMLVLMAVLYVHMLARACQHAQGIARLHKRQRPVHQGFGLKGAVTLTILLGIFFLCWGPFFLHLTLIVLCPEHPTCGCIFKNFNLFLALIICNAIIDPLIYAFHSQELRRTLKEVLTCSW
T2 sequence (P41968 whole entry): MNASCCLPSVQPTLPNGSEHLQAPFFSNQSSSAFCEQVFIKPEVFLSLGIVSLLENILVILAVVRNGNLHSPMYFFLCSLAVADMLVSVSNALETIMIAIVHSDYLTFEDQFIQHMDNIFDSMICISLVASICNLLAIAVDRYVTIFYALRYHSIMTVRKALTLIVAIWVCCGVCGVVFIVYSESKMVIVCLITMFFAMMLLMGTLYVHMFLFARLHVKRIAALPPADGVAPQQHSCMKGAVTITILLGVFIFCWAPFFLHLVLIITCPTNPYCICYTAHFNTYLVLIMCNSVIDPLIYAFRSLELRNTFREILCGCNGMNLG

SMILES: CCOc1ccccc1-c1ccc(N2CCN(C(=O)C3(C(F)(F)F)CCC3)C[C@H]2CC)c(C(=O)N[C@@H]2CN3CCC2CC3)n1 [Compound 1, 6-(2-ethoxyphenyl)-3-((R)-2-ethyl-4-(1-(trifluoromethyl)cyclobutane-1-carbonyl)piperazin-1-yl)-N—((S)-quinuclidin-3-yl)picolinamide]
- pIC50 [1]: < 5.00
- pIC50 [2]: < 6.00
- inhibition/activity [3]: > 70%
- selectivity for hMC2R over 5-HT1B [4]: > 2200 fold
- agonistic activity ([4]; agonist mode, no signal up to 3000 nM): no agonistic activity
- pIC50 ([4]; antagonist mode, read-out: antagonistic activity IC50): ~6.12
- Cmax [5]: 149 ng/mL
- AUC(0-t) ([5]; read-out: AUC up to the last measurable concentration (AUC0-t)): 1400 ng·h/mL
- suppression of corticosterone ([6]; female rats, 1 mg/kg oral): 51%
- suppression of corticosterone ([6]; female rats, 3 mg/kg oral): 71%
- suppression of corticosterone ([6]; female rats, 10 mg/kg oral): 88%
- dose with statistically significant suppression of corticosterone ([6]; female rats, oral): ≥ 1 mg/kg
- ACTH-stimulated corticosterone secretion ([6]; male and female rats, oral): dose-dependently suppressed
- suppression of corticosterone ([6]; male rats, 3 mg/kg oral): 62%
- suppression of corticosterone ([6]; male rats, 10 mg/kg oral): 78%
- dose with statistically significant suppression of corticosterone ([6]; male rats, oral): ≥ 3 mg/kg
- minimum effective dose ([6]; male rats, oral, 1 μg/kg ACTH-stimulated acute assay): 3 mg/kg
- accumulation with chronic dosing, higher than projected from SAD study results ([7]; 40 mg daily over 10 days): approximately 2.4 fold
- Day 1 PK profile and exposures ([7]; 40 mg, Day 1): comparable to the 40 mg single dose from the SAD study
- half-life ([7]; human, in vivo, oral, 40 mg daily over 10 days): ~30 h
- basal and ACTH-stimulated cortisol secretion ([8]; 4 h post-dose throughout the MAD study): suppressed basal and ACTH-stimulated cortisol secretion
- basal unstimulated cortisol ([8]; at 24 hours (before the next dose)): suppression of basal unstimulated cortisol was not observed
- basal and ACTH-stimulated cortisol levels ([8]; high dose ACTH-stimulation test, after 10 days of dosing): suppressed basal and ACTH-stimulated cortisol levels
